Results reported in patent US8772348B2, “Materials and methods for pest control” (priority 2009, dated 2014).
Like-named read-outs stand apart in the source and are kept apart here.

How the values were obtained:
[1] = system: Susceptible Musca domestica; assay: Glass jar contact bioassay, susceptible (laboratory) house flies
Description: Briefly, adult house flies, Musca domestica, are obtained from strains that have been reared in the laboratory of the Entomology and Nematology Department, University of Florida. […] The positive control is exposed to serial dilutions of permethrin. The negative control is not exposed to any chemical compound. The mortality rate is measured after 2-hour, 4-hour, and 24-hour periods. Ataxic flies are considered dead.
(§1) The ability of house flies to recover from insecticidal exposure is also investigated. After a 2-hour exposure, each set of flies is transferred into a separate glass jar. The mortality rate is measured at two time intervals: first, immediately at the transfer (2 hours after the initial exposure), and second, 22 hours after the transfer (24 hours after the initial exposure).
The mortality rate is analyzed using the PROBIT model. The data is adjusted based on the mortality rate in the control set using the Abbott's transformation, and the percent mortality is further analyzed based on ANOVA measurement. The experiment is repeated at least three times. The data is discarded if the mortality rate in the control set exceeds 10%. The LC50 and LC90 values are further determined using the SAS (Cary, N.C., USA) statistical software. For each chemical compound, at least 1280 flies are examined.

[2] = system: Field-collected Musca domestica
Description: Briefly, one Musca domestica strain is collected from the University of Florida dairy unit in Alachua County, Florida, U.S.A. (“the Alachua strain”). The other Musca domestica strain is collected from a dairy farm in Gilchrist County, Florida, U.S.A. (“the Gilchrist strain”). Both strains are colonized adults, and are subsequently reared at 27° C. in the laboratory of the Entomology and Nematology Department, University of Florida.
The positive control is exposed to serial dilutions of permethrin. The negative control is not exposed to any chemical compound. 1 mL of insecticide was dissolved in acetone (concentrations between 0.5 and 20 mg mL^−1) in a 60 mL glass jar having a 67.86 cm^2 inside surface area (Wheaton, Millville, N.J.). Jars were allowed to dry for 1 h prior to fly introduction. Flies were held in jars for 2, 4 and 24 h, and fly mortality rate was scored at that time. Sugar water (10%) was provided in all assays, unless stated otherwise. The mortality rate is measured after a 2-hour, 4-hour, and 24-hour period. Ataxic flies are considered dead. The mortality rate and the LC values are determined using the same procedures as is illustrated in Example 2.

Aedes aegypti [3] = conditions: On filter paper
Description: Briefly, yellow fever mosquito, Ae. aegypti were obtained from strains that have been cultured in the laboratory of the Entomology and Nematology Department, University of Florida.
(§2) The mortality rate is measured after a 2-hour, 4-hour and 24-hour exposure period. Ataxic mosquitoes are considered dead.
as §1, with “Ae. aegypti” for “house flies”, “Ae. aegypti” for “flies”, “separate” for “separate glass”

Aedes aegypti [4] = conditions: On camouflage military fabric
Description: as §2
as §1, with “Ae. aegypti” for “house flies”, “Ae. aegypti” for “flies”, “separate” for “separate glass”
The mortality rate and the LC values are determined using the same procedures as is illustrated in Example 2.

Musca domestica [5] = conditions: M. domestica; formulation on plywood panels at 1.67 mg cm^−2; mortality 24 h after
Description: (§3) Briefly, each fly strain is divided into eight sets: three sets as the experiment, four sets as the positive control, and one set as the negative control. Flies are assayed on unpainted plywood panel boards that have been previously exposed to natural summer weather conditions for at least 10 days. […] The positive control set is treated with permethrin, geranyl acetone, rosalva or citronellol. The negative control set is treated with water. The formulation is applied at a uniform rate of 7.5 ml per 225 cm^2, sufficient to cover the entire panel without dripping. Subsequently, the treated panel boards are dried for about an hour.
(§4) In each set, 20 adult flies are placed onto the panel boards. Flies are secured with wooden embroidery hoops, covered with a coarse mesh screen cloth previously sprayed with the respective formulation. After 4 hours, flies are transferred into a clean jar. The mortality rate is measured 24 hours after the transfer, and is determined using the same procedures as are illustrated in Example 2.
(§5) Plywood panels (225 cm^2) were treated with chemicals at a rate of 1.67 mgcm^−2. Panels were treated on day 0 and held until exposure on post-treatment day. Mosquitoes were exposed to chemicals for 2 h, and mortality rate was assessed 24 h after initial exposure. Control contained formulation ingredients without semiochemicals.

Stomoxys calcitrans = conditions: S. calcitrans; formulation on plywood panels at 1.67 mg cm^−2; mortality 24 h after
Description: as §3, §4, §5

Musca domestica [6] = conditions: formulation on plywood panels, 3.33 mg cm^−2 (footnote 1.67), 2 h exposure, mortality 24 h after
Description: Briefly, after Musca domestica is exposed to formulations at concentration of 3.33 mg cm^−2 for 2 hours, each set is transferred into a separate glass jar, and held for another 24 hours.
as §5, with “of 1.67 mg cm^−2. Panels were” for “of 1.67 mgcm^−2. Panels were”, “0 and was held until” for “0 and held until”

Aedes aegypti [7] = conditions: formulation on plywood panels at 1.67 mg cm^−2, 2 h exposure, mortality 24 h after initial exposure
Description: Briefly, after mosquitoes are assayed on unpainted plywood panel boards with formulation at a concentration of 1.67 mg cm^−2 for 2 hours, they are transferred into a separate glass jar, and held for another 24 hours. The mortality rate is measured daily for a continuous 4 days (Day 1 starts at 24 hours after the transfer), as is determined using the same procedures as are illustrated in Example 2.
as §5, with “of 1.67 mg cm^−2. Panels were” for “of 1.67 mgcm^−2. Panels were”, “0 and was held until” for “0 and held until”

[8] = 2 h constant exposure, glass jar
[9] = 2 h exposure, transferred to clean jars, mortality 24 h after initial exposure
[10] = 4 h constant exposure, glass jar
[11] = 24 h constant exposure, glass jar
[12] = Alachua strain, 2 h constant exposure
[13] = Alachua strain, 4 h constant exposure
[14] = Alachua strain, 24 h constant exposure
[15] = Gilchrist strain, 2 h constant exposure
[16] = Gilchrist strain, 4 h constant exposure
[17] = Gilchrist strain, 24 h constant exposure
[18] = 2 h exposure then transferred, mortality 24 h after initial exposure

Work on permethrin [reference compound] yielded an LC50 [1, 8] of 0.18 μg cm^−2, an LC90 [1, 8] of 1.20 μg cm^−2 and an LC50 [1, 9] of 0.58 μg cm^−2. The LC90 [1, 9] was 3.56 μg cm^−2, the “decline in toxicity after a 24-hour holding period subsequent to an initial 2-hour exposure” value ([1]; 2 h transferred vs 2 h constant) was ~3 fold and the LC50 [1, 10] was 0.10 μg cm^−2. The LC90 [1, 10] was 0.95 μg cm^−2, the LC50 [1, 11] was 0.03 μg cm^−2 and the LC90 [1, 11] was 0.41 μg cm^−2. The LC50 [2, 12] was 4.61 μg cm^−2, the LC90 [2, 12] was 14.86 μg cm^−2 and the LC50 [2, 13] was 4.10 μg cm^−2. It also gave an LC90 [2, 13] of 15.85 μg cm^−2, an LC50 [2, 14] of 0.99 μg cm^−2 and an LC90 [2, 14] of 3.78 μg cm^−2. For the same substance, the LC50 [2, 15] was 0.41 μg cm^−2, the LC90 [2, 15] was 1.82 μg cm^−2 and the LC50 [2, 16] was 0.39 μg cm^−2. It also gave an LC90 [2, 16] of 1.51 μg cm^−2, an LC50 [2, 17] of 0.16 μg cm^−2 and an LC90 [2, 17] of 0.85 μg cm^−2. It also gave an LC50 (Aedes aegypti [3]; 2 h constant exposure) of 0.02 μg cm^−2, an LC50 (Aedes aegypti [3]; [18]) of 0.04 μg cm^−2 and an LC50 (Aedes aegypti [3]; 4 h constant exposure) of 0.0018 μg cm^−2. It also gave an LC50 (Aedes aegypti [3]; 24 hr constant exposure) of 0.00045 μg cm^−2, an LC50 (Aedes aegypti [4]; 2 h constant exposure) of 0.012 μg cm^−2 and an LC50 (Aedes aegypti [4]; [18]) of 0.45 μg cm^−2. For the same substance, the LC50 (Aedes aegypti [4]; 4 h constant exposure) was 0.0009 μg cm^−2, the LC50 (Aedes aegypti [4]; 24 hr constant exposure) was 0.00031 μg cm^−2 and the “% mortality” value (Musca domestica [5]) was 88.40a %. The “% mortality” value (Stomoxys calcitrans) was 100.00a %, the “% mortality on various days following treatment” value (Musca domestica [6]; day 1) was 100.00a % and the “% mortality on various days following treatment” value (Musca domestica [6]; day 2) was 90.50a %. The “% mortality on various days following treatment” value (Musca domestica [6]; day 3) was 97.50a %, the “% mortality on various days following treatment” value (Musca domestica [6]; day 5) was 97.50a % and the “% mortality on various days following treatment” value (Musca domestica [6]; day 7) was 97.50a %. The “% mortality on various days following treatment” value (Musca domestica [6]; day 14) was 67.00a %, the “% mortality on various days following treatment” value (Aedes aegypti [7]; day 1) was 100.00a % and the “% mortality on various days following treatment” value (Aedes aegypti [7]; day 2) was 99.00a %. For the same substance, the “% mortality on various days following treatment” value (Aedes aegypti [7]; day 3) was 98.0a % and the “% mortality on various days following treatment” value (Aedes aegypti [7]; day 4) was 96.50a %.
